According to patent US9486506B2 (Novo Nordisk A/S, priority 2011, dated 2016):
Numbered stars: 1 amine (or outer) side, 2 acyl side, 3 side chain; on linkers, the order of the positions; unused ones are H or OH. Side chains are listed from the residue outwards. Peptide text beside a SMILES is read from it. * marks the point of attachment. C18 diacid = O=C(O)CCCCCCCCCCCCCCCCC(=O)*; C16 diacid = O=C(O)CCCCCCCCCCCCCCC(=O)*; γGlu = O=C(O)[C@H](CCC(=O)[*:2])N[*:1]; C14 diacid = O=C(O)CCCCCCCCCCCCC(=O)*; AEEA = NCCOCCOCC(=O)O

Assays:
[1] = molecular target: T1, glucagon receptor (Homo sapiens, UniProt P47871); experiment: Assay (I) Glucagon activity (cAMP biosensor, FLIPR); assay type: cell-based
T1 construct: expressed in transfected cells
T1 sequence (P47871 26-477): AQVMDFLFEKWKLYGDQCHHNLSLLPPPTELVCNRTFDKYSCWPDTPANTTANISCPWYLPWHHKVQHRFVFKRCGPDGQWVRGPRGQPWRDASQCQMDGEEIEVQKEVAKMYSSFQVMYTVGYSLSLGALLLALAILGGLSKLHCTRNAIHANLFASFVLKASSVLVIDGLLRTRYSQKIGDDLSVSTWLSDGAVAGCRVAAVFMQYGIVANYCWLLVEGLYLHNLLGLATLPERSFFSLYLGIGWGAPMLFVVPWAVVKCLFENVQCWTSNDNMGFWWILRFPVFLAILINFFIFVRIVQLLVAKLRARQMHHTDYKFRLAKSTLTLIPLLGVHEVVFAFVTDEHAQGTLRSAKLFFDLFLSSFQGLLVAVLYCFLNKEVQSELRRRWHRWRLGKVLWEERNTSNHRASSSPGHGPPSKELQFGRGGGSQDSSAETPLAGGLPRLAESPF

[2] = Assay (XI) Pharmacokinetic study in minipigs; assay type: in vivo, Göttingen minipigs; conditions: both sexes, Göttingen, minipig, plasma, iv, i.v. administration, terminal half-life, read-out: iv PK minipig [T½] (converted)
Description: Buffer: • 50 mM Dinatriumphosphatdihydrat • 184 mM Propylenglycol • 58 mM Phenol • pH adjusted to 8.15 with H3PO4. In cases where pH was adjusted to 8.15 after re-suspension of analogues, 0.2 M NaOH was used. Assay (XI) Pharmacokinetic Study in Minipigs
This is done in a pharmacokinetic (PK) study, whereamong other parameters the terminal half-life and the clearance of the derivative in question is determined. Increasing the terminal half-life and decreasing the clearance means that the compound of study is eliminated slower from the body.
Male or female Göttingen minipigs were obtained from Ellegaard Göttingen Minipigs (Dalmose, Denmark) approximately 7-14 months of age and weighing from approximately 16-35 kg were used in the studies. The minipigs were housed either individually (pigs with permanent catheters) or in a group and fed restrictedly once or twice daily with SDS minipig diet (Special Diets Services, Essex, UK). In some studies two permanent central venous catheters were implanted in vena cava caudalis or cranialis in each animal after at least 2 weeks of acclimatisation. […] On each dosing occasion these pigs were instrumented with a venflon in one ear vein through which the derivatives were dosed. Blood sampling was done by venipuncture in v. jugularis or v. cava cranialis
The animals were either unfasted or fasted for approximately 18 h before dosing and from 0 to 4 h after dosing, but had ad libitum access to water during the whole period.
Intravenous injections (the volume corresponding to usually 2-3 nmol/kg, for example 0.1 ml/kg) of the compounds were given through one catheter or through the venflon, and blood was sampled at predefined time points for up till 13 days post dosing (preferably through the other catheter or by venipuncture). Blood samples (for example 0.8 ml) were collected in tubes with EDTA buffer (8 mM) (sometimes aprotinin 500 KIU/ml blood was added) and then centrifuged at 4° C. and 1942 G for 10 minutes. […] Based on these measurements, time-plasma concentration profiles for the compound of study are plotted and a so-called non-compartmental pharmacokinetic analysis of the data is performed in WinNonlin v. 5.0 or Phoenix v. 6.2 (Pharsight Inc., Mountain View, Calif., USA) or other relevant software for PK analysis. For most compounds, the terminal part of the plasma-concentration profiles will be linear when drawn in a semi-logarithmic plot, reflecting that after the initial distribution, drug is removed from the body at a constant fractional rate. The rate (lambda Z or is equal to minus the slope of the terminal part of the plot. From this rate, also the terminal half-life may be calculated, as t½=ln(2)/λz (see, e.g., Johan Gabrielsson and Daniel Weiner: Pharmacokinetics and Pharmacodynamic Data Analysis. Concepts & Applications, 3rd Ed., Swedish Pharmaceutical Press, Stockholm (2000)).
Clearance is defined as the dose (D) divided by area under the curve (AUC) on the plasmaconcentration versus time profile (Rowland, M and Tozer T N: Clinical Pharmacokinetics: Concepts and Applications, 3rd edition, 1995 Williams Wilkins)

[3] = Assay (X) Chemical stability assessment by RP-UPLC; assay type: physicochemical; conditions: pH 8.15, 14 days at 37° C. vs 5° C., 333 μM

| SMILES | EC50 [1] [nM] | half-life [2] [h] | Chemical stability [Purity loss/14 days 37 C.] [3] [%] |
| --- | --- | --- | --- |
| CC(C)C[C@H](NC(=O)[C@H](CC(=O)O)NC(=O)[C@H](CC(C)C)NC(=O)[C@H](Cc1ccc(O)cc1)NC(=O)[C@H](CCCNC(=N)N)NC(=O)[C@H](CO)NC(=O)[C@H](Cc1ccc(O)cc1)NC(=O)[C@H](CC(=O)O)NC(=O)[C@H](CO)NC(=O)[C@@H](NC(=O)[C@H](Cc1ccccc1)NC(=O)[C@@H](NC(=O)CNC(=O)[C@H](CCC(N)=O)NC(=O)[C@H](CO)NC(=O)[C@@H](N)Cc1c[nH]cn1)[C@@H](C)O)[C@@H](C)O)C(=O)N[C@@H](CCCNC(=N)N)C(=O)N[C@@H](CCCNC(=N)N)C(=O)N[C@@H](C)C(=O)N[C@@H](CCC(N)=O)C(=O)N[C@@H](CC(=O)O)C(=O)N[C@@H](Cc1ccccc1)C(=O)N[C@H](C(=O)N[C@@H](CCCCNC(=O)CC[C@H](NC(=O)CC[C@H](NC(=O)COCCOCCNC(=O)COCCOCCNC(=O)CC[C@H](NC(=O)CCCCCCCCCCCCCCC(=O)O)C(=O)O)C(=O)O)C(=O)O)C(=O)N[C@@H](Cc1c[nH]c2ccccc12)C(=O)N[C@@H](CC(C)C)C(=O)N[C@@H](CC(C)C)C(=O)N[C@@H](CO)C(=O)N[C@H](C(=O)O)[C@@H](C)O)C(C)C [Example 25, N^ε24-[(4S)-4-carboxy-4-[[(4S)-4-carboxy-4-[[2-[2-[2-[[2-[2-[2-[[(4S)-4-carboxy-4-(15-carboxypentadecanoylamino)butanoyl]amino]ethoxy]ethoxy]acetyl]amino]ethoxy]ethoxy]acetyl]amino]butanoyl]amino]butanoyl]-[Arg^12,Leu^16,Lys^24,Leu^27,Ser^28]-Glucagon] (H-HSQGTFTSDYSRYLDLRRAQDFVK([γGlu-γGlu-AEEA-AEEA-γGlu-C16 diacid])WLLST-OH) | 0.067 | 59.6 | – |
| CC(C)C[C@H](NC(=O)[C@H](Cc1ccc(O)cc1)NC(=O)[C@H](CCCNC(=N)N)NC(=O)[C@H](CO)NC(=O)[C@H](Cc1ccc(O)cc1)NC(=O)[C@H](CC(=O)O)NC(=O)[C@H](CO)NC(=O)[C@@H](NC(=O)[C@H](Cc1ccccc1)NC(=O)[C@@H](NC(=O)CNC(=O)[C@H](CCC(N)=O)NC(=O)[C@H](CO)NC(=O)[C@@H](N)Cc1c[nH]cn1)[C@@H](C)O)[C@@H](C)O)C(=O)N[C@@H](CC(=O)O)C(=O)N[C@@H](C)C(=O)N[C@@H](CCCNC(=N)N)C(=O)N[C@@H](CCCNC(=N)N)C(=O)N[C@@H](C)C(=O)N[C@@H](CCC(N)=O)C(=O)N[C@@H](CC(=O)O)C(=O)N[C@@H](Cc1ccccc1)C(=O)N[C@H](C(=O)N[C@@H](CCCCNC(=O)CC[C@H](NC(=O)CC[C@H](NC(=O)COCCOCCNC(=O)COCCOCCNC(=O)CC[C@H](NC(=O)CCCCCCCCCCCCCCCCC(=O)O)C(=O)O)C(=O)O)C(=O)O)C(=O)N[C@@H](Cc1c[nH]c2ccccc12)C(=O)N[C@@H](CC(C)C)C(=O)N[C@@H](CC(C)C)C(=O)N[C@@H](CO)C(=O)N[C@H](C(=O)O)[C@@H](C)O)C(C)C [Example 16, N^ε24-[(4S)-4-carboxy-4-[[(4S)-4-carboxy-4-[[2-[2-[2-[[2-[2-[2-[[(4S)-4-carboxy-4-(17-carboxyheptadecanoylamino)butanoyl]amino]ethoxy]ethoxy]acetyl]amino]ethoxy]ethoxy]acetyl]amino]butanoyl]amino]butanoyl]-[Arg^12,Ala^16,Lys^24,Leu^27,Ser^28]-Glucagon] (H-HSQGTFTSDYSRYLDARRAQDFVK([γGlu-γGlu-AEEA-AEEA-γGlu-C18 diacid])WLLST-OH) | 0.158 | 86.6 | – |
| CC(C)C[C@H](NC(=O)[C@H](CC(=O)O)NC(=O)[C@H](CC(C)C)NC(=O)[C@H](Cc1ccc(O)cc1)NC(=O)[C@H](CCCNC(=N)N)NC(=O)[C@H](CO)NC(=O)[C@H](Cc1ccc(O)cc1)NC(=O)[C@H](CC(=O)O)NC(=O)[C@H](CO)NC(=O)[C@@H](NC(=O)[C@H](Cc1ccccc1)NC(=O)[C@@H](NC(=O)CNC(=O)[C@H](CCC(N)=O)NC(=O)[C@H](CO)NC(=O)[C@@H](N)Cc1c[nH]cn1)[C@@H](C)O)[C@@H](C)O)C(=O)N[C@@H](CCCNC(=N)N)C(=O)N[C@@H](CCCNC(=N)N)C(=O)N[C@@H](C)C(=O)N[C@@H](CCC(N)=O)C(=O)N[C@@H](CC(=O)O)C(=O)N[C@@H](Cc1ccccc1)C(=O)N[C@H](C(=O)N[C@@H](CCCCNC(=O)CC[C@H](NC(=O)CC[C@H](NC(=O)COCCOCCNC(=O)COCCOCCNC(=O)CC[C@H](NC(=O)CCCCCCCCCCCCC(=O)O)C(=O)O)C(=O)O)C(=O)O)C(=O)N[C@@H](Cc1c[nH]c2ccccc12)C(=O)N[C@@H](CC(C)C)C(=O)N[C@@H](CC(C)C)C(=O)N[C@@H](CO)C(=O)N[C@H](C(=O)O)[C@@H](C)O)C(C)C [Example 24, N^ε24-[(4S)-4-carboxy-4-[[(4S)-4-carboxy-4-[[2-[2-[2-[[2-[2-[2-[[(4S)-4-carboxy-4-(13-carboxytridecanoylamino)butanoyl]amino]ethoxy]ethoxy]acetyl]amino]ethoxy]ethoxy]acetyl]amino]butanoyl]amino]butanoyl]-[Arg^12,Leu^16,Lys^24,Leu^27,Ser^28]-Glucagon] (H-HSQGTFTSDYSRYLDLRRAQDFVK([γGlu-γGlu-AEEA-AEEA-γGlu-C14 diacid])WLLST-OH) | 0.006 | 4.1 | – |
| CC(C)C[C@H](NC(=O)[C@H](CC(C)C)NC(=O)[C@H](Cc1c[nH]c2ccccc12)NC(=O)[C@H](CCCCNC(=O)CC[C@H](NC(=O)CC[C@H](NC(=O)COCCOCCNC(=O)COCCOCCNC(=O)CC[C@H](NC(=O)CCCCCCCCCCCCCCC(=O)O)C(=O)O)C(=O)O)C(=O)O)NC(=O)[C@@H](NC(=O)[C@H](Cc1ccccc1)NC(=O)[C@H](CC(=O)O)NC(=O)[C@H](CCC(N)=O)NC(=O)[C@H](C)NC(=O)[C@H](CCCNC(=N)N)NC(=O)[C@H](CCCNC(=N)N)NC(=O)[C@H](CC(C)C)NC(=O)[C@H](CC(=O)O)NC(=O)[C@H](CC(C)C)NC(=O)[C@H](Cc1ccc(O)cc1)NC(=O)[C@H](CCCNC(=N)N)NC(=O)[C@H](CO)NC(=O)[C@H](Cc1ccc(O)cc1)NC(=O)[C@H](CC(=O)O)NC(=O)[C@H](CO)NC(=O)[C@@H](NC(=O)[C@H](Cc1ccccc1)NC(=O)[C@@H](NC(=O)CNC(=O)[C@H](CCC(N)=O)NC(=O)[C@H](CO)NC(=O)[C@@H](N)Cc1c[nH]cn1)[C@@H](C)O)[C@@H](C)O)C(C)C)C(=O)N[C@@H](C)C(=O)N[C@H](C(=O)O)[C@@H](C)O [Example 89, N^ε24-[(4S)-4-carboxy-4-[[(4S)-4-carboxy-4-[[2-[2-[2-[[2-[2-[2-[[(4S)-4-carboxy-4-(15-carboxypentadecanoylamino)butanoyl]amino]ethoxy]ethoxy]acetyl]amino]ethoxy]ethoxy]acetyl]amino]butanoyl]amino]butanoyl]-[Arg12,Leu16,Lys24,Leu27,Ala28]-Glucagon] (H-HSQGTFTSDYSRYLDLRRAQDFVK([γGlu-γGlu-AEEA-AEEA-γGlu-C16 diacid])WLLAT-OH) | 0.064 | – | 6.8 |
| CC(C)C[C@H](NC(=O)[C@H](Cc1c[nH]c2ccccc12)NC(=O)[C@H](CCCCNC(=O)CC[C@H](NC(=O)CC[C@H](NC(=O)CC[C@H](NC(=O)CC[C@H](NC(=O)CCCCCCCCCCCCCCCCC(=O)O)C(=O)O)C(=O)O)C(=O)O)C(=O)O)NC(=O)[C@@H](NC(=O)[C@H](Cc1ccccc1)NC(=O)[C@H](CC(=O)O)NC(=O)[C@H](CCC(N)=O)NC(=O)[C@H](C)NC(=O)[C@H](CCCNC(=N)N)NC(=O)[C@H](CCCNC(=N)N)NC(=O)[C@@H](NC(=O)[C@H](CC(=O)O)NC(=O)[C@H](CC(C)C)NC(=O)[C@H](Cc1ccc(O)cc1)NC(=O)[C@H](CCCCN)NC(=O)[C@H](CO)NC(=O)[C@H](Cc1ccc(O)cc1)NC(=O)[C@H](CC(=O)O)NC(=O)[C@H](CO)NC(=O)[C@@H](NC(=O)[C@H](Cc1ccccc1)NC(=O)[C@@H](NC(=O)CNC(=O)[C@H](CCC(N)=O)NC(=O)[C@H](CO)NC(=O)[C@@H](N)Cc1c[nH]cn1)[C@@H](C)O)[C@@H](C)O)C(C)C)C(C)C)C(=O)N[C@@H](CC(C)C)C(=O)N[C@@H](CO)C(=O)N[C@H](C(=O)O)[C@@H](C)O [Example 78, N^ε24-[(4S)-4-carboxy-4-[[(4S)-4-carboxy-4-[[(4S)-4-carboxy-4-[[(4S)-4-carboxy-4-(17-carboxyheptadecanoylamino)butanoyl]amino]butanoyl]amino]butanoyl]amino]butanoyl]-[Val16,Lys24,Leu27,Ser28]-Glucagon] | 0.134 | – | 4.3 |
